Source: patent US10106684B2, “Method for making Schiff base” (KING FAHD UNIVERSITY OF PETROLEUM AND MINERALS, priority 2016, dated 2018)

Assay: Fluorescence titration of compound 1 with Cu^2+ (Stern-Volmer plot, detection limit)
Type: binding
Description: All of the absorption and emission studies were carried out in mixed aqueous solutions of water and methanol (4:1) containing HEPES buffer (10 mM, pH 7.4) at a concentration of 20 μM and 0.2 μM respectively. Emission studies were carried out by addition of 10 equiv of various biologically and non-biologically relevant metal cations to an aqueous-MeOH (4:1) solution of compound 1 at a concentration level of 0.2 μM and their complexation abilities were studies by fluorescence. […] Importantly, none of the other cations induced any such distinct emission shift or quenching (FIG. 7). […] Fluorescence titration of compound 1 with Cu^2+ was carried out in aqueous MeOH (4:1) solution at a concentration level of 0.2 μM. The addition of Cu^2+ to the solution of compound 1 caused a complete quenching of the fluorescent emission and the peak at 525 nm (Φ=0.32) is “switched off” when excited at 502 nm (FIG. 9). […]
Thus, it can be assumed that the quenching of the fluorescence of compound 1 by Cu^2+ ion is a static quenching mode due to the formation of a non-fluorescent complex in the ground state. […] From the Stern-Volmer linear plot (FIG. 14) the binding constant of compound 1 with Cu^2+ was calculated to be 1.0×10^7 L·mol^−1 (error limits≤10%).

binding constant with Cu^2+ from Stern-Volmer linear plot (H2O:MeOH (4:1), HEPES 10 mM, pH 7.4, λex=502 nm, error limits≤10%): 1e+07 L/mol
SMILES: Cn1ccnc1/C=N/N1C(=O)c2ccccc2C12c1ccc(O)cc1Oc1cc(O)ccc12 [compound 1, Fluorescein-N-methylimidazole conjugate]
effect of Cu^2+ on fluorescence emission at 525 nm (0.2 μM compound, excitation 502 nm): completely quenched
